Measurements taken from the supplement of paper PMC10307832.

Assays:
Assay in all cases: relative viability (nuclei count vs DMSO), 5 days (fraction); higher = more cells survive
PAC-1 + Vorinostat = compound: C=CCc1cccc(/C=N/NC(=O)CN2CCN(Cc3ccccc3)CC2)c1O [PAC-1] + O=C(CCCCCCC(=O)Nc1ccccc1)NO [Vorinostat] (partner 1 µM)
In short: (§1)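 Lung cancer cell lines in 1536-well plates were dosed by pin tool the day after seeding, either with one drug alone or with a fixed anchor-drug dose plus five library-drug doses (not always all listed) in √10 steps. After 5 days, cells were fixed and their nuclei stained in one step (final 0.05% Triton X-100, 1% formaldehyde, 1 ug/ml Hoechst), then counted on 4× images. Relative viability is the nuclei count in treated wells divided by that in vehicle wells. Values are medians of duplicate plates.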

BMX-IN-1 + Palbociclib = compound: C=CC(=O)Nc1cc(-n2c(=O)ccc3cnc4ccc(-c5ccc(NS(C)(=O)=O)cc5)cc4c32)ccc1C [BMX-IN-1] + CC(=O)c1c(C)c2cnc(Nc3ccc(N4CCNCC4)cn3)nc2n(C2CCCC2)c1=O [Palbociclib] (partner 0.5 µM)
In short: as §1

BMX-IN-1 + Vorinostat = compound: C=CC(=O)Nc1cc(-n2c(=O)ccc3cnc4ccc(-c5ccc(NS(C)(=O)=O)cc5)cc4c32)ccc1C [BMX-IN-1] + O=C(CCCCCCC(=O)Nc1ccccc1)NO [Vorinostat] (partner 1 µM)
In short: as §1

BMX-IN-1 + Navitoclax = compound: C=CC(=O)Nc1cc(-n2c(=O)ccc3cnc4ccc(-c5ccc(NS(C)(=O)=O)cc5)cc4c32)ccc1C [BMX-IN-1] + CC1(C)CCC(c2ccc(Cl)cc2)=C(CN2CCN(c3ccc(C(=O)NS(=O)(=O)c4ccc(N[C@H](CCN5CCOCC5)CSc5ccccc5)c(S(=O)(=O)C(F)(F)F)c4)cc3)CC2)C1 [Navitoclax] (partner 0.5 µM)
In short: as §1

PAC-1 + AZD7762 = compound: C=CCc1cccc(/C=N/NC(=O)CN2CCN(Cc3ccccc3)CC2)c1O [PAC-1] + NC(=O)Nc1cc(-c2cccc(F)c2)sc1C(=O)N[C@H]1CCCNC1 [AZD7762] (partner 0.2 µM)
In short: as §1

| Cell Line | relative viability (PAC-1 + Vorinostat; first compound 0.02 µM) | relative viability (PAC-1 + Vorinostat; first compound 0.06325 µM) | relative viability (PAC-1 + Vorinostat; first compound 0.2 µM) | relative viability (PAC-1 + Vorinostat; first compound 2 µM) | relative viability (BMX-IN-1 + Palbociclib; first compound 0.02 µM) | relative viability (BMX-IN-1 + Palbociclib; first compound 0.2 µM) | relative viability (BMX-IN-1 + Palbociclib; first compound 0.6325 µM) | relative viability (BMX-IN-1 + Palbociclib; first compound 2 µM) | relative viability (BMX-IN-1 + Vorinostat; first compound 0.02 µM) | relative viability (BMX-IN-1 + Vorinostat; first compound 0.2 µM) | relative viability (BMX-IN-1 + Vorinostat; first compound 0.6325 µM) | relative viability (BMX-IN-1 + Vorinostat; first compound 2 µM) | relative viability (BMX-IN-1 + Navitoclax; first compound 0.02 µM) | relative viability (BMX-IN-1 + Navitoclax; first compound 0.2 µM) | relative viability (BMX-IN-1 + Navitoclax; first compound 0.6325 µM) | relative viability (BMX-IN-1 + Navitoclax; first compound 2 µM) | relative viability (PAC-1 + AZD7762; first compound 0.02 µM) | relative viability (PAC-1 + AZD7762; first compound 0.06325 µM) | relative viability (PAC-1 + AZD7762; first compound 0.2 µM) | relative viability (PAC-1 + AZD7762; first compound 2 µM) |
| --- | --- | --- | --- | --- | --- | --- | --- | --- | --- | --- | --- | --- | --- | --- | --- | --- | --- | --- | --- | --- |
| NCI-H661 | 0.786 | 0.784 | 0.743 | 0.676 | 0.388 | 0.39 | 0.421 | 0.398 | 0.878 | 0.877 | 0.857 | 0.743 |  |  |  |  |  |  |  |  |
| NCI-H1703 |  |  |  |  |  |  |  |  |  |  |  |  | 1.25 | 1.3 | 1.29 | 0.942 | 0.148 | 0.128 | 0.143 | 0.124 |
| NCI-H2342 | 0.733 | 0.659 | 0.802 | 0.739 | 0.578 | 0.519 | 0.51 | 0.568 | 0.827 | 0.728 | 0.71 | 0.65 |  |  |  |  | 0.56 | 0.383 | 0.395 | 0.666 |
| ABC-1 | 1.06 | 1 | 1.44 | 1.09 | 0.76 | 0.503 | 0.537 | 0.589 | 1.34 | 1.6 | 1.39 | 1.21 |  |  |  |  | 0.952 | 0.871 | 0.628 | 0.975 |
| NCI-H2023 | 0.741 | 0.605 | 0.495 | 0.474 | 0.48 | 0.389 | 0.386 | 0.381 | 0.726 | 0.742 | 0.654 | 0.105 | 1.36 | 1.15 | 1.12 | 0.988 |  |  |  |  |
